Where a name gives a salt, the structure may show the parent alone.
Key:
[1] = target: T1, T1R1/T1R3 receptor (Felis catus, UniProt E3UMS2); test: Example 8: PAM screening of transmembrane compounds with GMP and Ala on T1R1/T1R3 in HEK293 cells; assay type: cell-based, cat; conditions: for T1R1/T1R3 PAM: compound at 0.01, 0.1, 1 mM in combination with GMP+Ala mixtures (T1-T4), PAM if response to the combination is greater than the sum of the responses to compound alone and to GMP+Ala alone; for PAM profile assessment: in the presence of GMP and Alanine, in words
Excerpt: HEK293 cells that stably express T1R3 and inducibly express T1R1 were exposed to transmembrane compound alone or in combination with Ala and GMP to activate the umami receptor. Activation of the T1R1/T1R3 receptor was detected by a change in intracellular calcium levels using a calcium sensitive fluorescent dye and/or a luminescent reporter system. […] A FLIPR® Tetra or a FlexStation® 3 was used for data capture.
Dose response curves were generated for each transmembrane compound at concentrations of 0 (buffer only), 0.01, 0.1 and 1 mM, wherein each of the three concentrations of transmembrane compound was tested in combination with 0.03 mM GMP+100 mM Ala (T1); 0.6 mM GMP+10 mM Ala (T2); 0.1 mM GMP+60 mM Ala (T3) and 0.3 mM GMP+60 mM Ala (T4). The T4 mixture was also tested in a 2-fold dilution series (the T4(X) Concentration). In these experiments, the first test concentration was 2× (2 times) the T4 concentration. The subsequent test concentrations were 2-fold dilutions from that (1×, 0.5× etc.). This dilution series was tested with or without the addition of the test compound at a constant 0.3 mM concentration.
Activation of the umami receptor was also determined in the presence of 1 mM GMP+100 mM Ala to generate a “maximum” umami receptor activation level.

[2] = target: T1, T1R1/T1R3 receptor; test: Example 8: agonist screening of transmembrane compounds on T1R1/T1R3 in HEK293 cells; assay type: cell-based, cat; conditions: for T1R1/T1R3 agonist: transmembrane compound tested at 0.01, 0.1 and 1 mM, HEK293 cells expressing T1R1/T1R3, calcium dye and/or luminescent reporter; for agonist profile assessment: transmembrane compound alone, in words
Experimental: HEK293 cells that stably express T1R3 and inducibly express T1R1 were exposed to a transmembrane compound. Activation of the T1R1/T1R3 receptor was detected by a change in intracellular calcium levels using a calcium sensitive fluorescent dye and/or a luminescent reporter system. […] A FLIPR® Tetra or a FlexStation® 3 was used for data capture.
Each transmembrane compound was tested at concentrations of 0.01 mM, 0.1 mM, and 1 mM. […] To generate the dose response curves, the transmembrane compound was tested at concentrations of between 0.0001 mM and 1.0 mM in the presence of GMP and Ala.

[3] = target: T1, T1R1/T1R3 receptor; assay type: cell-based; conditions: for Thres +IMP (0.2 mM): threshold in the presence of 0.2 mM IMP; for EC50 +buffer (alone): compound alone in buffer; for Activity: overall call for modulation of T1R1/T1R3: active or N/A (= Not active)
Excerpt: HEK293 cells that stably express T1R3 and inducibly express T1R1 were exposed to transmembrane compounds alone or in combination with one or more amino acids and/or one or more nucleotides to activate the umami receptor. Activation of the T1R1/T1R3 receptor was detected by a change in intracellular calcium levels using a calcium sensitive fluorescent dye. Cells that express T1R3 but not T1R1 were used as a control. A FLIPR® Tetra or a FlexStation® 3 was used for data capture.
In each experiment, serial dilutions of up to 10 mM of the transmembrane compound were added to the T1R1/T1R3-expressing cells.

[4] = in the presence of 0.2 mM IMP, CNBD = Could not be determined

O=C(CN1C(=O)C(=O)N(CCc2cccs2)C1=O)c1ccccc1 [Formula 6, 1-(2-oxo-2-phenylethyl)-3-(2-(thiophen-2-yl)ethyl)imidazolidine-2,4,5-trione]
T1R1/T1R3 PAM [1]: No
T1R1/T1R3 agonist [2]: No

COC(=O)[C@H](Cc1ccccc1)NCc1ccccc1.Cl [Formula 15, N-Benzyl-L-phenylalanine methyl ester hydrochloride]
T1R1/T1R3 PAM [1]: Yes
T1R1/T1R3 agonist [2]: Yes

COc1ccc(C(=O)CN2C(=O)C(=O)N(Cc3ccccc3)C2=O)c(OC)c1 [Formula 5, 1-benzyl-3-(2-(2,4-dimethoxyphenyl)-2-oxoethyl)imidazolidine-2,4,5-trione]
T1R1/T1R3 PAM [1]: No
T1R1/T1R3 agonist [2]: No

COC(=O)[C@@H](Cc1ccccc1)NCc1ccccc1.Cl [N-Benzyl-D-Phenylalanine methyl ester hydrochloride]
PAM profile assessment [1]: PAM activity
agonist profile assessment [2]: agonist

O=C(CN1C(=O)C(=O)N(Cc2ccccc2)C1=O)c1ccccc1 [Formula 1, 1-benzyl-3-(2-oxo-2-phenylethyl)imidazolidine-2,4,5-trione]
T1R1/T1R3 PAM [1]: No
T1R1/T1R3 agonist [2]: No

COC(=O)[C@H](CC(C)C)NCc1ccccc1.Cl [Benzyl-L-leucine methyl ester hydrochloride]
PAM profile assessment [1]: PAM activity
agonist profile assessment [2]: agonist

COC(=O)C(NCc1ccccc1)c1ccccc1 (centres unmarked) [Formula 19, Methyl-2-benzylamino-2-phenylacetate]
T1R1/T1R3 PAM [1]: Yes
T1R1/T1R3 agonist [2]: Yes

COC(=O)[C@@H](Cc1ccccc1)NCc1ccccc1.Cl [Formula 16, N-Benzyl-D-Phenylalanine methyl ester hydrochloride]
T1R1/T1R3 PAM [1]: Yes
T1R1/T1R3 agonist [2]: Yes

N[C@@H](CS)C(=O)O [L-Cysteine, cysteine]
Max resp ΔF/F +IMP (0.2 mM) [3, 4]: 0.5800 ΔF/F
Thres +IMP (0.2 mM) ([3]; CNBD = Could not be determined): 10.0 mM

O=C(CN1C(=O)C(=O)N(Cc2ccccc2)C1=O)c1ccc2c(c1)OCCCO2 [Formula 8, 1-benzyl-3-(2-(3,4-dihydro-2H-benzo[b][1,4]dioxepin-7-yl)-2-oxoethyl)imidazolidine-2,4,5-trione]
T1R1/T1R3 PAM [1]: Weak PAM
PAM profile assessment [1]: PAM activity
T1R1/T1R3 agonist [2]: No

N[C@@H](Cc1ccc(O)cc1)C(=O)OCc1ccccc1 [Formula 21, L-Tyrosine benzyl ester]
T1R1/T1R3 PAM [1]: No
T1R1/T1R3 agonist [2]: No

O=C(CN1C(=O)C(=O)N(Cc2ccccc2)C1=O)c1ccc2c(c1)OCCO2 [Formula 4, 1-benzyl-3-(2-(2,3-dihydrobenzo[b][1,4]dioxin-6-yl)-2-oxoethyl)imidazolidine-2,4,5-trione]
T1R1/T1R3 PAM [1]: No
T1R1/T1R3 agonist [2]: No

O=C1CC(=O)N(Cc2ccccc2)C(=O)N1Cc1ccccc1 [Formula 24, 1,3-dibenzylpyrimidine-2,4,6(1H,3H,5H)-trione]
T1R1/T1R3 PAM [1]: No
T1R1/T1R3 agonist [2]: Yes

Cl.N[C@@H](Cc1ccccc1)C(=O)OCc1ccccc1 [Formula 20, L-Phenylalanine benzyl ester hydrochloride]
T1R1/T1R3 PAM [1]: Yes
T1R1/T1R3 agonist [2]: Yes

COc1ccccc1C(=O)CN1C(=O)C(=O)N(Cc2cccs2)C1=O [Formula 10, 1-(2-(2-methoxyphenyl)-2-oxoethyl)-3-(thiophen-2-ylmethyl)imidazolidine-2,4,5-trione]
T1R1/T1R3 PAM [1]: No
T1R1/T1R3 agonist [2]: No

Nc1nc2c(ncn2[C@@H]2O[C@H](COP(=O)(O)OP(=O)(O)O)[C@@H](O)[C@H]2O)c(=S)[nH]1 [6-Thioguanosine-5′-O-diphosphate]
EC50 +buffer (alone) ([3]; CNBD = Could not be determined): CNBD
EC50 +IMP (0.2 mM) [3, 4]: CNBD
Max resp ΔF/F +IMP (0.2 mM) [3, 4]: 0.0720 ΔF/F
Thres +IMP (0.2 mM) ([3]; CNBD = Could not be determined): CNBD

N[C@@H](Cc1ccc(O)cc1)C(=O)O [L-Tyrosine, tyrosine]
Thres +IMP (0.2 mM) ([3]; CNBD = Could not be determined): 3.0 mM

O=C(CN1C(=O)C(=O)N(Cc2ccccc2)C1=O)c1ccc(Cl)s1 [Formula 12, 1-benzyl-3-(2-(5-chlorothiophen-2-yl)-2-oxoethyl)imidazolidine-2,4,5-trione]
T1R1/T1R3 PAM [1]: Weak PAM
T1R1/T1R3 agonist [2]: No

Cl.N[C@@H](Cc1ccccc1)C(=O)OCc1ccccc1 [L-Phenylalanine benzyl ester hydrochloride]
PAM profile assessment [1]: PAM activity
agonist profile assessment [2]: agonist

CC(C)CC(NC(=O)c1ccccc1)C(N)=O (racemic)
Thres +IMP (0.2 mM) ([3]; CNBD = Could not be determined): 0.1 mM

O=C(CN1C(=O)C(=O)N(Cc2ccccc2)C1=O)c1ccc2c(c1)CCC2 [Formula 2, 1-benzyl-3-(2-(2,3-dihydro-1H-inden-5-yl)-2-oxoethyl)imidazolidine-2,4,5-trione]
T1R1/T1R3 PAM [1]: No
T1R1/T1R3 agonist [2]: No

O=C(CN1C(=O)C(=O)N(Cc2ccccc2)C1=O)c1ccc(Br)cc1 [Formula 3, 1-benzyl-3-(2-(4-bromophenyl)-2-oxoethyl)imidazolidine-2,4,5-trione]
T1R1/T1R3 PAM [1]: No
T1R1/T1R3 agonist [2]: No

O=C(O)[C@H](Cc1ccc(O)cc1)NCc1ccccc1 [Formula 22, N-Benzyl-L-Tyrosine]
T1R1/T1R3 PAM [1]: No
T1R1/T1R3 agonist [2]: No

O=C1C(=O)N(Cc2ccccc2)C(=S)N1Cc1ccccc1 [Formula 13, 1,3-dibenzyl-2-thioxoimidazolidine-4,5-dione]
T1R1/T1R3 PAM [1]: No
T1R1/T1R3 agonist [2]: No

N[C@@H](CCC(=O)O)C(=O)[O-].[Na+] [MSG (Glutamic acid sodium salt), monosodium glutamate]
EC50 +IMP (0.2 mM) [3, 4]: CNBD
Max resp ΔF/F +IMP (0.2 mM) [3, 4]: CNBD
Max resp % of Ala +IMP (0.2 mM) ([3]; in the presence of 0.2 mM IMP, relative to Ala, CNBD = Could not be determined): CNBD
Thres +IMP (0.2 mM) ([3]; CNBD = Could not be determined): CNBD

O=C(CN1C(=O)C(=O)N(Cc2ccccc2)C1=O)c1ccc(Cl)s1 [1-benzyl-3-(2-(5-chlorothiophen-2-yl)-2-oxoethyl)imidazolidine-2,4,5-trione]
PAM profile assessment [1]: PAM activity

O=C1CC(=O)N(Cc2ccccc2)C(=O)N1Cc1ccccc1 [1,3-dibenzylpyrimidine-2,4,6(1H,3H,5H)-trione]
agonist profile assessment [2]: agonist activity
Thres +IMP (0.2 mM) ([3]; CNBD = Could not be determined): 0.1 mM

O=C(NCCc1ccccc1)c1cccnc1 [N-phenethylnicotinamide]
Thres +IMP (0.2 mM) ([3]; CNBD = Could not be determined): 0.03 mM

C[C@H](N)C(=O)O [L-Alanine, reference compound]
Thres +IMP (0.2 mM) ([3]; CNBD = Could not be determined): 3.0 mM

CCOC(=O)NC(=O)C(c1ccccc1)c1ccccc1 [Ro 01-6128, reference compound]
Thres +Alanine (20 mM) [3]: 0.3 mM
Activity [3]: active
Thres +IMP (0.2 mM) ([3]; CNBD = Could not be determined): 0.01 mM

N[C@@H](Cc1ccccc1)C(=O)O [L-Phenylalanine, reference compound]
Max resp ΔF/F +IMP (0.2 mM) [3, 4]: 0.5900 ΔF/F
Thres +IMP (0.2 mM) ([3]; CNBD = Could not be determined): 0.1 mM

Nc1ccccc1C(=O)NCCc1ccccc1 [2-amino-N-phenethylbenzamide]
Thres +IMP (0.2 mM) ([3]; CNBD = Could not be determined): 0.01 mM

O=P(O)(O)OP(=O)(O)OP(=O)(O)OC[C@H]1O[C@@H](n2cnc3c(Cl)ncnc32)[C@H](O)[C@@H]1O [6-Chloropurine riboside-5′-O-triphosphate]
Thres +Alanine (20 mM) [3]: 0.01 mM
Activity [3]: active
Thres +IMP (0.2 mM) ([3]; CNBD = Could not be determined): 0.003 mM

O=C[C@H](O)[C@@H](O)[C@H](O)[C@H](O)CO [D-Glucose, reference compound]
EC50 +buffer (alone) ([3]; CNBD = Could not be determined): CNBD

N[C@@H](Cc1c[nH]c2ccccc12)C(=O)O [L-Tryptophan, tryptophan]
Thres +IMP (0.2 mM) ([3]; CNBD = Could not be determined): 0.1 mM

O=C(NCCc1c[nH]c2ccccc12)c1cccnc1 [N-(2-(1H-indol-3-yl)ethyl)nicotinamide, N-(2-(1H-Indol-3-yl)ethyl)nicotinamide]
Thres +IMP (0.2 mM) ([3]; CNBD = Could not be determined): 0.003 mM

C=C[C@H]1C[N@@]2CC[C@H]1C[C@H]2[C@H](O)c1ccnc2ccc(OC)cc12 [Quinine HCL, reference compound]
EC50 +buffer (alone) ([3]; CNBD = Could not be determined): CNBD

Reference: patent publication US20190021380A1 (priority 2014, published 2019)
